Test results published in patent publication US8586555B2, “Immunomodulatory compositions, formulations, and methods for use thereof” (Dynavax Technologies Corporation, priority 2001, dated 2013).

Columns and labels:
Assay type in all cases: cell-based
[1] = system: human peripheral blood mononuclear cells (hPBMC); test: human PBMC assay, Example 7 (oligo 20 μg/ml, cPLGA 100 μg/ml); conditions: for immunomodulatory activity: combined with cPLGA; for IFN-α Mean / IFN-γ Mean: mean of donors 28115-28118
Procedure: (§1) Hexameric oligonucleotides were tested for immunomodulatory activity alone and complexed with lactic acid/glycolic acid copolymer microcarrier beads using a human peripheral blood mononuclear cells (hPBMC) assay. Peripheral blood was collected from healthy volunteers by venipuncture using heparinized syringes. Blood was layered onto a FICOLL® (Amersham Pharmacia Biotech) cushion and centrifuged. hPBMCs, located at the FICOLL® interface, were collected, then washed twice with cold phosphate buffered saline (PBS). The cells were resuspended and cultured in 48 well plates at 2×10^6 cells/mL at 37° C. in RPMI 1640 with 10% heat-inactivated human AB serum plus 50 units/mL penicillin, 50 μg/mL streptomycin, 300 μg/mL glutamine, 1 mM sodium pyruvate, and 1×MEM non-essential amino acids (NEAA).
(§2) Oligonucleotides were tested as single agents, or in combination with PLGA microspheres (unmodified or cationic). All oligonucleotides contained 100% phosphorothioate linkages and were tested at 20 μg/ml. The PLGA microcarriers were used at 250 μg/ml. When oligos were tested with PLGA microcarriers, the oligo and the microcarriers were added at the same time to the culture. The cells were cultured in the in the presence of test samples for 24 hours, then cell-free medium was collected from each well and assayed for IFN-γ and IFN-α concentration. Two different oligonucleotides were used as controls: a first oligonucleotide known to have immunostimulatory activity (a 22mer oligonucleotide containing an ISS (“ISS+,” 5′-[…]-3′(SEQ ID NO:2)) and a second oligonucleotide of similar sequence but lacking immunostimulatory activity (“ISS−,” 5′-[…]-3′ (SEQ ID NO:1)). SAC (PANSORBIN® CalBiochem, 1/5000 dilution) and a untreated culture were used as additional positive and negative controls, respectively. SAC contains Staph. aureus (Cowan I) cell material. All samples were assayed in duplicate.
(§3) IFN-γ and IFN-α were assayed using CYTOSCREEN™ ELISA kits from BioSource International, Inc., according to the manufacturer's instructions.
(§4) The immunomodulatory activity of the oligonucleotides used in Examples 3 and 4 was confirmed with the human PBMC assay using PBMCs from an additional four donors (donors 28051-28054). Oligonucleotides were tested alone or in combination with cationic PLGA as described in Example 3, except that 96 well plates were used instead of 48 well plates and the oligonucleotides were premixed with the cationic microspheres at room temperature for 15 minutes before they were added to the culture, rather than being added simultaneously to the culture.
Additional oligonucleotides, some incorporating modified bases, were tested for immunomodulatory activity in the human PBMC assay. Oligonucleotides were tested alone or in combination with cPLGA as described in Example 5. The oligonucleotides were premixed with the cationic PLGA microspheres for 15 minutes at room temperature at concentrations of 20 μg/ml and 100 μg/ml, respectively.

[2] = system: human peripheral blood mononuclear cells (hPBMC); test: human PBMC assay, Example 5 (96 well plates, premixed); conditions: for IFN-α Mean / IFN-γ Mean: mean of donors 28051-28054
Procedure: as §1, §2, §3, §4

[3] = system: human peripheral blood mononuclear cells (hPBMC); test: human PBMC assay, Example 4 (oligos and PLGA premixed 15 minutes); conditions: for IFN-α Mean / IFN-γ Mean: mean of donors 28044, 28045
Procedure: as §1, §2, §3
Additional hexameric and pentameric oligonucleotides were tested for immunomodulatory activity in the PBMC assay. Oligonucleotides 6-6 (5′-TCGAGA-3′), 6-8 (5′-GTCGAC-3′), 6-9 (5′-GTCGTT-3′), 6-2 (5′-TCGTTT-3′), 6-3 (5′-TTCGTT-3′), 6-4 (5′-TTTCGT-3′), 5-1 (5′-TCGTC-3′), and 5-2 (5′-TCGTT-3′) were tested alone or in combination with cationic PLGA as described in Example 3 except that the oligos and PLGA were premixed for 15 minutes room temperature before addition to the cultures. The test articles were assayed using PBMC isolated from donors 28044 and 28045.

[4] = system: human peripheral blood mononuclear cells (hPBMC); test: human PBMC assay, Example 6
Procedure: as §1, §2, §3, §4
Additional oligonucleotides were tested for immunomodulatory activity in the human PBMC assay. Oligonucleotides were tested alone or in combination with cPLGA as described in Example 5.
Additional oligonucleotides were tested using hPBMCs from volunteers 154-157 using the same assay. Results, which are shown in Table 7, confirm the activity of oligonucleotides fitting the formula 5′-X1TCGX2-3′, where the oligonucleotide is a 3-6mer, X1 is zero or one nucleotide and X2 is zero to three nucleotides.

[5] = delivered as IMO/MC complexes (cPLGA)

| Substance | IFN-α ([1]; donor 28115) | IFN-γ ([1]; donor 28115) | immunomodulatory activity ([2]; delivered alone) | immunomodulatory activity [2, 5] | IFN-α ([2]; donor 28051) | IFN-γ ([2]; donor 28051) | IFN-α ([2]; donor 28052) | IFN-γ ([2]; donor 28052) | IFN-α ([2]; donor 28053) | IFN-γ ([2]; donor 28053) | IFN-α ([2]; donor 28054) | IFN-γ ([2]; donor 28054) | IFN-α Mean [2] | IFN-γ Mean [2] | IFN-α ([3]; donor 28044) | IFN-γ ([3]; donor 28044) | IFN-α ([3]; donor 28045) | IFN-γ ([3]; donor 28045) | IFN-α Mean [3] | IFN-γ Mean [3] | also measured |
| --- | --- | --- | --- | --- | --- | --- | --- | --- | --- | --- | --- | --- | --- | --- | --- | --- | --- | --- | --- | --- | --- |
| 5′-AATCGT-3′ [Oligonucleotide 6-25] | 7 pg/mL | 2 pg/mL |  |  |  |  |  |  |  |  |  |  |  |  |  |  |  |  |  |  | immunomodulatory activity [1]: active; IFN-α ([1]; donor 28116): 0 pg/mL; IFN-γ ([1]; donor 28116): 15 pg/mL; IFN-α ([1]; donor 28117): 0 pg/mL; IFN-γ ([1]; donor 28117): 11 pg/mL; IFN-α ([1]; donor 28118): 0 pg/mL; IFN-γ ([1]; donor 28118): 0 pg/mL; IFN-α Mean [1]: 2 pg/mL; IFN-γ Mean [1]: 7 pg/mL |
| 5′-GTCGAC-3′ [Oligonucleotide 6-8] |  |  | inactive | highly active | 1 pg/mL | 0 pg/mL | 0 pg/mL | 0 pg/mL | 6 pg/mL | 1 pg/mL | 0 pg/mL | 2 pg/mL | 2 pg/mL | 1 pg/mL | 0 pg/mL | 6 pg/mL | 0 pg/mL | 0 pg/mL | 0 pg/mL | 3 pg/mL |  |
| 5′-GTCGTT-3′ [Oligonucleotide 6-9] |  |  | inactive | highly active | 0 pg/mL | 1 pg/mL | 0 pg/mL | 0 pg/mL | 6 pg/mL | 2 pg/mL | 0 pg/mL | 1 pg/mL | 2 pg/mL | 1 pg/mL | 0 pg/mL | 6 pg/mL | 0 pg/mL | 0 pg/mL | 0 pg/mL | 3 pg/mL |  |
| 5′-TCCTTT-3′ [Oligonucleotide 6-20, reference compound] | 0 pg/mL | 6 pg/mL |  |  |  |  |  |  |  |  |  |  |  |  |  |  |  |  |  |  | IFN-α Mean ([4]; mean of volunteers 154-157): 0 pg/mL; IFN-γ Mean ([4]; mean of volunteers 154-157): 3 pg/mL; IFN-α ([4]; volunteer 154): 0 pg/mL; IFN-γ ([4]; volunteer 154): 0 pg/mL; IFN-α ([4]; volunteer 155): 0 pg/mL; IFN-γ ([4]; volunteer 155): 0 pg/mL; IFN-α ([4]; volunteer 156): 0 pg/mL; IFN-γ ([4]; volunteer 156): 13 pg/mL; IFN-α ([4]; volunteer 157): 0 pg/mL; IFN-γ ([4]; volunteer 157): 0 pg/mL; IFN-α ([1]; donor 28116): 0 pg/mL; IFN-γ ([1]; donor 28116): 3 pg/mL; IFN-α ([1]; donor 28117): 0 pg/mL; IFN-γ ([1]; donor 28117): 9 pg/mL; IFN-α ([1]; donor 28118): 0 pg/mL; IFN-γ ([1]; donor 28118): 0 pg/mL; IFN-α Mean [1]: 0 pg/mL; IFN-γ Mean [1]: 5 pg/mL |
| 5′-TCGAGA-3′ [Oligonucleotide 6-6] |  |  | inactive | highly active | 1 pg/mL | 2 pg/mL | 4 pg/mL | 2 pg/mL | 0 pg/mL | 1 pg/mL | 10 pg/mL | 2 pg/mL | 4 pg/mL | 2 pg/mL | 0 pg/mL | 0 pg/mL | 0 pg/mL | 0 pg/mL | 0 pg/mL | 0 pg/mL |  |
| 5′-TCGTC-3′ [Oligonucleotide 5-1] |  |  | inactive | highly active | 0 pg/mL | 1 pg/mL | 3 pg/mL | 0 pg/mL | 1 pg/mL | 1 pg/mL | 1 pg/mL | 0 pg/mL | 1 pg/mL | 1 pg/mL | 0 pg/mL | 6 pg/mL | 0 pg/mL | 7 pg/mL | 0 pg/mL | 6 pg/mL |  |
| 5′-TCGTCG-3′ [Oligonucleotide 6-12] |  |  |  |  |  |  |  |  |  |  |  |  |  |  |  |  |  |  |  |  | immunomodulatory activity ([4]; delivered as oligonucleotide/MC complex (cPLGA)): highly active; IFN-α ([4]; donor 28075): 5 pg/mL; IFN-γ ([4]; donor 28075): 8 pg/mL; IFN-α ([4]; donor 28076): 3 pg/mL; IFN-γ ([4]; donor 28076): 13 pg/mL; IFN-α ([4]; donor 28077): 187 pg/mL; IFN-γ ([4]; donor 28077): 13 pg/mL; IFN-α ([4]; donor 28078): 181 pg/mL; IFN-γ ([4]; donor 28078): 18 pg/mL; IFN-α Mean ([4]; mean of donors 28075-28078): 94 pg/mL; IFN-γ Mean ([4]; mean of donors 28075-28078): 13 pg/mL |
| 5′-TTCGT-3′ [Oligonucleotide 5-3] | 10 pg/mL | 26 pg/mL |  |  |  |  |  |  |  |  |  |  |  |  |  |  |  |  |  |  | immunomodulatory activity [1]: active in two of four donors; IFN-α ([1]; donor 28116): 0 pg/mL; IFN-γ ([1]; donor 28116): 4 pg/mL; IFN-α ([1]; donor 28117): 0 pg/mL; IFN-γ ([1]; donor 28117): 17 pg/mL; IFN-α ([1]; donor 28118): 0 pg/mL; IFN-γ ([1]; donor 28118): 0 pg/mL; IFN-α Mean [1]: 3 pg/mL; IFN-γ Mean [1]: 12 pg/mL |
| 5′-TTCGTT-3′ [Oligonucleotide 6-3] |  |  | inactive | highly active | 0 pg/mL | 1 pg/mL | 5 pg/mL | 0 pg/mL | 5 pg/mL | 5 pg/mL | 0 pg/mL | 0 pg/mL | 3 pg/mL | 2 pg/mL | 0 pg/mL | 6 pg/mL | 0 pg/mL | 0 pg/mL | 0 pg/mL | 3 pg/mL |  |
| 5′-TTTCGT-3′ [Oligonucleotide 6-4] |  |  |  | variable activity | 0 pg/mL | 3 pg/mL | 2 pg/mL | 0 pg/mL | 11 pg/mL | 2 pg/mL | 0 pg/mL | 0 pg/mL | 3 pg/mL | 1 pg/mL | 0 pg/mL | 13 pg/mL | 0 pg/mL | 0 pg/mL | 0 pg/mL | 6 pg/mL |  |
| 5′-TTTTCG-3′ [Oligonucleotide 6-5] |  |  |  |  |  |  |  |  |  |  |  |  |  |  |  |  |  |  |  |  | IFN-α Mean ([4]; mean of volunteers 154-157): 0 pg/mL; IFN-γ Mean ([4]; mean of volunteers 154-157): 3 pg/mL; IFN-α ([4]; volunteer 154): 0 pg/mL; IFN-γ ([4]; volunteer 154): 0 pg/mL; IFN-α ([4]; volunteer 155): 0 pg/mL; IFN-γ ([4]; volunteer 155): 0 pg/mL; IFN-α ([4]; volunteer 156): 0 pg/mL; IFN-γ ([4]; volunteer 156): 11 pg/mL; IFN-α ([4]; volunteer 157): 0 pg/mL; IFN-γ ([4]; volunteer 157): 0 pg/mL |
| 5′-UCGTTT-3′ [Oligonucleotide 6-21] | 0 pg/mL | 27 pg/mL |  |  |  |  |  |  |  |  |  |  |  |  |  |  |  |  |  |  | immunomodulatory activity [1]: active; IFN-α ([1]; donor 28116): 0 pg/mL; IFN-γ ([1]; donor 28116): 0 pg/mL; IFN-α ([1]; donor 28117): 0 pg/mL; IFN-γ ([1]; donor 28117): 7 pg/mL; IFN-α ([1]; donor 28118): 0 pg/mL; IFN-γ ([1]; donor 28118): 0 pg/mL; IFN-α Mean [1]: 0 pg/mL; IFN-γ Mean [1]: 8 pg/mL |
